Reference: patent US20230265104A1, “NOVEL HETEROCYCLIC COMPOUNDS” (PRISM BIOLAB CO., LTD., priority 2020, published 2023)

System: PANC-1 (human pancreatic cancer-derived cell line)
Experiment: MTS assay on Panc-1 (human pancreas carcinoma cell line)
Assay type: cell-based
Conditions: 144 h; for IC50: PANC-1, MTS method, cell survival 6 days after exposure, 4-parameter logistic fit; for inhibition at 10 µM: read-out: Growth inhibition (%) 10 μM
Outline: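 Viability measured by MTS 6 days after treating human pancreatic carcinoma PANC-1 cells with compound serially diluted 2-fold in DMSO; absorbance 492–630 nm normalized to solvent control. Triplicate measurements averaged and fitted to a 4-parameter logistic curve.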

| Compound | IC50 [µM] | inhibition at 10 µM (PANC-1, MTS, 6 days) [%] | further results |
| --- | --- | --- | --- |
| CNCCCN1C[C@H](CC(C)C)N2C(=O)[C@@H](CC(C)C)ON(C(=O)/C=C/c3ccccn3)[C@H]2C1 [ID-19, (3R,6S,9aS)-3,6-diisobutyl-8-(3-(methylamino)propyl)-1-((E)-3-(pyridin-2-yl)acryloyl)hexahydropyrazino[2,1-c][1,2,4]oxadiazin-4(3H)-one] | 10.2 | – | inhibition at 30 µM (PANC-1, MTS, 6 days, 30 μM, read-out: Growth inhibition (%) 30 μM): 99.7% |
| CC(C)C[C@H]1ON(C(=O)/C=C/c2ccccn2)[C@H]2CN(C3CCCN(C)CC3)C(=O)[C@H](CC(C)C)N2C1=O (stereo partly drawn) [ID-67, (3R,6S,9aS)-3,6-diisobutyl-8-(1-methylazepan-4-yl)-1-((E)-3-(pyridin-2-yl)acryloyl)tetrahydropyrazino[2,1-c][1,2,4]oxadiazine-4,7(3H,6H)-dione] | 3.3 | 100 | – |
| COc1ccc(/C=C/C(=O)N2O[C@H](CC(C)C)C(=O)N3[C@@H]2CN(C2CCN(C)CC2)C(=O)[C@@H]3CC(C)C)nc1 [ID-72, (3R,6S,9aS)-3,6-diisobutyl-1-((E)-3-(5-methoxypyridin-2-yl)acryloyl)-8-(1-methylpiperidin-4-yl)tetrahydropyrazino[2,1-c][1,2,4]oxadiazine-4,7(3H,6H)-dione] | – | – | inhibition at 2.5 µM (PANC-1, MTS, 6 days, 2.5 μM, read-out: Growth inhibition (%) 2.5 μM): 37% |
| CC(C)C[C@H]1ON(C(=O)/C=C/c2nc3cc(O)ccc3s2)[C@H]2CN([C@H]3CCN(CCCCO)C3)C(=O)[C@H](CC(C)(C)C)N2C1=O [ID-7, (3R,6S,9aS)-1-((E)-3-(5-hydroxybenzo[d]thiazol-2-yl)acryloyl)-8-((S)-1-(4-hydroxybutyl)pyrrolidin-3-yl)-3-isobutyl-6-neopentyltetrahydropyrazino[2,1-c][1,2,4]oxadiazine-4,7(3H,6H)-dione] | 0.07 | – | – |
| CC(C)C[C@H]1ON(C(=O)/C=C/c2ccccn2)[C@H]2CN(C3CCCN(C)C3)C(=O)[C@H](CC(C)C)N2C1=O (stereo partly drawn) [ID-65, (3R,6S,9aS)-3,6-diisobutyl-8-(1-methylpiperidin-3-yl)-1-((E)-3-(pyridin-2-yl)acryloyl)tetrahydropyrazino[2,1-c][1,2,4]oxadiazine-4,7(3H,6H)-dione] | 4.7 | 96.5 | – |
| CC(C)C[C@H]1ON(C(=O)/C=C/c2nc(C#CCCCCCO)cs2)[C@H]2CN(C3CN(CCCCO)C3)C(=O)[C@H](CC(C)(C)C)N2C1=O [ID-91, (3R,6S,9aS)-8-(1-(4-hydroxybutyl)azetidin-3-yl)-1-((E)-3-(4-(7-hydroxyhept-1-yn-1-yl)thiazol-2-yl)acryloyl)-3-isobutyl-6-neopentyltetrahydropyrazino[2,1-c][1,2,4]oxadiazine-4,7(3H,6H)-dione] | 0.12 | – | – |
| CC(C)C[C@H]1ON(C(=O)/C=C/c2nc3ccccc3o2)[C@H]2CN(C3CCN(C)CC3)C(=O)[C@H](CC(C)C)N2C1=O [ID-46, (3R, 6S, 9aS)-1-((E)-3-(benzo[d]oxazol-2-yl)acryloyl)-3,6-diisobutyl-8-(1-methylpiperidin-4-yl)tetrahydropyrazino[2,1-c][1,2,4]oxadiazine-4,7(3H,6H)-dione] | 1.4 | 99.1 | – |
| CC(C)C[C@H]1ON(C(=O)/C=C/c2nc3ccccc3s2)[C@H]2CN(C3CCN(CCCN)CC3)C(=O)[C@H](CC(C)(C)C)N2C1=O [ID-75, (3R,6S,9aS)-8-(1-(3-aminopropyl)piperidin-4-yl)-1-((E)-3-(benzo[d]thiazol-2-yl)acryloyl)-3-isobutyl-6-neopentyltetrahydropyrazino[2,1-c][1,2,4]oxadiazine-4,7(3H,6H)-dione] | 0.39 | – | inhibition at 0.3125 µM (PANC-1, MTS, 6 days, 0.3125 μM, read-out: Growth inhibition (%) 0.3125 μM): 19.9% |
